Laboratory results reported in US20110236381A1, “INHIBITION OF INTER-ALPHA TRYPSIN INHIBITOR FOR THE TREATMENT OF AIRWAY DISEASE” (priority 2008, published 2011).
Entries after “also recorded” stand apart in the source; their conditions may differ.

What was measured:
C57BL/6J mice = assay: Ozone-induced AHR, total lung resistance to methacholine (FlexiVent); assay type: in vivo; conditions: 50 μl instilled 1 hour before and 23 hours after acute ozone exposure; AHR 24 hours after ozone; vs vehicle
Source text: Exposure Protocol: C57BL/6J, CD44−/−, IaI−/− or HAS2 transgenic mice (mice that overexpress HAS2) were exposed to either Hepa-filtered air (FA) or ozone. Animals were housed in cages with low-endotoxin bedding, and given water and chow ad libitum. Ozone exposures were two parts per million (ppm) for three hours. The selection of ozone concentration levels in the mouse was based on similar biological responses observed in human exposure studies and published deposition fraction data for 03 in rodent models (Wiester et al., Toxicol Appl Pharmacol 96(1):140-146, 1988). Exposures were performed in 55-liter Hinner chambers with individual animal slots. […] Chamber ozone concentration was monitored continuously with a UV light photometer (1003AH, Dasibi, Glendale, Calif.). […]
HA challenge: Sterile, endotoxin-free (0.00008 EU/ml) high molecular weight hyaluronan (HMW-HA) (Healon, AMO, Santa Ana, Calif.) was reconstituted at 0.5 mg/ml in 0.02 M acetate/0.15 M sodium chloride, pH 6.0. […] In some experiments, 50 μl of HMW-HA, sHA, or vehicle were instilled oropharyngeally into isoflurane-anesthetized mice, and AHR was measured invasively 2-4 hours later. In other experiments, 50 μl of HMW-HA or vehicle was instilled 1 hour before and 23 hours after acute ozone exposure, and AHR was measured invasively 24 hours after ozone exposure. […]

[1] = in vivo; cited from earlier work
naive C57BL/6J mice [2] = assay: Lung lavage cells after sHA instillation; assay type: in vivo; conditions: compared to vehicle
Experimental: (§1) HA challenge: Sterile, endotoxin-free (0.00008 EU/ml) high molecular weight hyaluronan (HMW-HA) (Healon, AMO, Santa Ana, Calif.) was reconstituted at 0.5 mg/ml in 0.02 M acetate/0.15 M sodium chloride, pH 6.0. For the production of low molecular weight (also known as short-fragment) hyaluronan (sHA), healon was sonicated on ice. Sizes were confirmed by electrophoresis according to known methods (Lee and Cowman Anal Biochem 219(2):278-287, 1994). In some experiments, 50 μl of HMW-HA, sHA, or vehicle were instilled oropharyngeally into isoflurane-anesthetized mice, and AHR was measured invasively 2-4 hours later. In other experiments, 50 μl of HMW-HA or vehicle was instilled 1 hour before and 23 hours after acute ozone exposure, and AHR was measured invasively 24 hours after ozone exposure.
Whole lung lavage: Whole lung lavage was performed according to previously described methods (Hollingsworth et al., Am J Respir Crit Care Med 170(2):126-132, 2004). Supernatants were stored at −70° C.

CD44-deficient mice = assay: HA challenge in CD44-deficient mice, AHR; assay type: in vivo; conditions: sHA instillation
Experimental: as §1
(§2) Airway Physiology: Twenty four hours after the beginning of exposure, tracheas of anesthetized mice (pentobarbital sodium, 60 mg/kg i.p.) were surgically dissected and intubated, mice were paralyzed (pancuronium bromide, […] i.v.) and ventilated with a computer-controlled small animal ventilator (FlexiVent™, SCIREQ, Montreal, Canada) at a tidal volume of 7.5 ml/kg and a positive end-expiratory pressure of 3 cm H2O. Forced oscillation was used for measurements of respiratory mechanics. […]

naive C57BL/6J mice [3] = assay: HA challenge: oropharyngeal instillation of hyaluronan into naive mice, AHR measured invasively; assay type: in vivo; conditions: 50 μl of 0.5 mg/ml oropharyngeal, AHR 2-4 hours later, compared to vehicle
Experimental: as §1, §2

Row | Substance | ozone-induced AHR with hyaluronan instilled before and after ozone (C57BL/6J mice) | bronchoconstrictive response in exercise-induced asthma [1] | total cells or cell composition in lung lavage fluid after instillation (naive C57BL/6J mice [2]) | sHA-induced AHR in CD44-deficient mice compared to C57BL/6 (CD44-deficient mice) | induction of AHR in naive mice (naive C57BL/6J mice [3])
1 | high molecular weight hyaluronan [HMW-HA] | significantly ameliorates AHR; also recorded: significant attenuation of AHR | attenuate the bronchoconstrictive response |  |  | 
2 | short-fragment hyaluronan [sHA] |  |  | significant changes in total cells or cell composition in the lung lavage fluid were not observed; also recorded: a significant change was not observed in any cell type | resistant to sHA-induced AHR | induced AHR
